Results taken from ChEMBL document CHEMBL4304832, “Novel Pyrazole-Containing Compounds Active against Mycobacterium tuberculosis” (ACS Med Chem Lett, 2019).
Values after ≈ are worked out from the molar mass of the structure shown.

Assays:
[1] = system: Mycobacterium tuberculosis; assay: Antitubercular activity against Mycobacterium tuberculosis H37Rv incubated for 6 days by resazurin dye based fluorescence assay; format: functional; conditions: 144 h
[2] = Cytotoxicity against human HepG2 cells incubated for 48 hrs by CellTiter Glo assay; format: cell-based
[3] = Protection Index, ratio of CC50 for human HepG2 cells to MIC for Mycobacterium tuberculosis H37Rv; format: toxicity; conditions: read-out: PI
[4] = Chromatographic lipophilicity, log D of compound in PBS ay pH 7.4 by UV-HPLC analysis; format: physicochemical; conditions: PBS
[5] = target: Albumin (Homo sapiens, UniProt P02768); assay: Binding affinity to HSA by HPLC analysis; format: ADME; conditions: isolated protein
Sequence of Albumin (P02768 whole entry): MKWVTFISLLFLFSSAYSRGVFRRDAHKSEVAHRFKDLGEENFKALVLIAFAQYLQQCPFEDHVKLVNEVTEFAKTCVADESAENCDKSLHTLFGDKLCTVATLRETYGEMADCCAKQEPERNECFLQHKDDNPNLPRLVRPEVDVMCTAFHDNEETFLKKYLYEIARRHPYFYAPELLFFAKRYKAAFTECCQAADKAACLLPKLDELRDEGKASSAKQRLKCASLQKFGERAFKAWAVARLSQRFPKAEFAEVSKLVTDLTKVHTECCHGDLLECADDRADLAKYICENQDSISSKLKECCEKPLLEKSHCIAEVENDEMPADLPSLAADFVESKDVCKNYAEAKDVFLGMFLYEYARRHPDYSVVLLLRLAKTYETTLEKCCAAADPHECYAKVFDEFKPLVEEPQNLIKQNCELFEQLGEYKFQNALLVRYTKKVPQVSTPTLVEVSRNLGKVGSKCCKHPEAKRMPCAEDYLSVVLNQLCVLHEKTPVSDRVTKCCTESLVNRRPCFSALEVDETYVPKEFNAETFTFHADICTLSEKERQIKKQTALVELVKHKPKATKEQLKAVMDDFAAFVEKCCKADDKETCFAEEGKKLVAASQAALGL

[6] = Kinetic solubility of the compound in pH 7.4 phosphate buffered saline; format: physicochemical; conditions: read-out: Kinetic_solubility
[7] = Permeability of the compound in pH 7.05 phosphate buffer incubated for 3 hrs by artificial membrane permeability assay based LCMS analysis; format: ADME; conditions: PAMPA, read-out: permeability
[8] = target: Voltage-gated inwardly rectifying potassium channel KCNH2 (Homo sapiens, UniProt Q12809); assay: Inhibition of human ERG
Sequence of Voltage-gated inwardly rectifying potassium channel KCNH2 (Q12809 whole entry): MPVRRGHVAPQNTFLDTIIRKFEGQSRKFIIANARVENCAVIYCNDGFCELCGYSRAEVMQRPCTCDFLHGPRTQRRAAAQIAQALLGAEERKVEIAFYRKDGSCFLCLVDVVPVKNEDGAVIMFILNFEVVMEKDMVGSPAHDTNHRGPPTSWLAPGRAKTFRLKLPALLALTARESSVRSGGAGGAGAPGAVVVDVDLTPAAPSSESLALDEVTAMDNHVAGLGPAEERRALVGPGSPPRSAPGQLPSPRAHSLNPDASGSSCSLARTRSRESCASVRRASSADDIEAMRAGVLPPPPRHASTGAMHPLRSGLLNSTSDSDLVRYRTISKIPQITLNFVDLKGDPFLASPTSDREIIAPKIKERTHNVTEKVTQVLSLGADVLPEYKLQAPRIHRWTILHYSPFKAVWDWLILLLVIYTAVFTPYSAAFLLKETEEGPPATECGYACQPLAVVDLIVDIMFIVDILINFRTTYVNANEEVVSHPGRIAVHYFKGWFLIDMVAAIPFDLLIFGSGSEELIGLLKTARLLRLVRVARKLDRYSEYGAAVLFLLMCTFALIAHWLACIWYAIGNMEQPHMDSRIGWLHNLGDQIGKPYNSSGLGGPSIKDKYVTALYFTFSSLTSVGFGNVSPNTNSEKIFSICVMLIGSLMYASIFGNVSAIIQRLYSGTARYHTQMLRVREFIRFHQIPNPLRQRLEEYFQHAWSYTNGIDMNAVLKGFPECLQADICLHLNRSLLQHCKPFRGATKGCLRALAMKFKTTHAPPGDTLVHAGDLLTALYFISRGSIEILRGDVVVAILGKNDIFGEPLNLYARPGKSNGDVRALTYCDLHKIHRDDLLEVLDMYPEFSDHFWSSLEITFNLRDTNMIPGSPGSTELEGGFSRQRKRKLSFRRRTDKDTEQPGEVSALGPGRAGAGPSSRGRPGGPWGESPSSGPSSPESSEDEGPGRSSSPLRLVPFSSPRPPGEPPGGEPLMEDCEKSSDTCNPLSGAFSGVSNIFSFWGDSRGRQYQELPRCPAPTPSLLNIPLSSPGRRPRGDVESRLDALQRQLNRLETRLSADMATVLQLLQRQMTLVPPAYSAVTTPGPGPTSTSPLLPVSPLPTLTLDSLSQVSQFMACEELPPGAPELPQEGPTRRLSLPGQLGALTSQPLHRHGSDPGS

[9] = Solubility of the compound in FASSIF at 1 mg incubated for 4 hrs by UPLC-MS analysis; format: physicochemical
[10] = system: Mycobacterium tuberculosis; assay: Antitubercular activity against Mycobacterium tuberculosis H37Rv infected in C57BL/6 mouse assessed as reduction in bacterial load in lungs at 200 mg/kg administered once daily starting from 5 days post infection for 4 consecutive days and measured on day 9; format: functional

Row | Compound | MIC [1] | CC50 at 48 h [2] | selectivity ratio [3] | chromatographic logD [4] | Activity [5] | solubility kinetic [6] | Papp at 3 h [7] | IC50 [8] | solubility at 4 h [9] | Activity [10]
1 | Fc1ccc(-n2nc(CN3CCN(c4ccccn4)CC3)cc2-c2ccc(C(F)(F)F)cc2)cc1 | 2 µM (≈ 0.963 µg/mL) | 32 µM | 16 | – | – | – | – | – | – | –
2 | COC1CCN(Cc2nn(-c3ccc(C(C)C)cc3)c(-c3ccc(F)cc3)c2C)CC1 | 50 µM (≈ 21.1 µg/mL) | – | – | – | – | – | – | – | – | –
3 | COC1CCN(Cc2cc(-c3ccc(C(F)(F)F)cc3)n(C3CCCCC3)n2)CC1 | 1.2 µM (≈ 0.506 µg/mL) | 31.6 µM | 26 | – | – | – | – | – | – | –
4 | COC1CCN(Cc2cc(-c3ccc(C(C)C)cc3)n(C(C)C)n2)CC1 | 50 µM (≈ 17.8 µg/mL) | – | – | – | – | – | – | – | – | –
5 | C[Si]1(C)CCN(Cc2cc(-c3ccc(C(F)(F)F)cc3)n(-c3ccc(F)cc3)n2)CC1 | 0.02 µM (≈ 0.00895 µg/mL) | 16 µM | – | 8.13 | 96.65% | 53 µM (≈ 23.7 µg/mL) | – | – | – | –
6 | CC(C)c1ccc(-c2cc(CN3CCOCC3)nn2C2CCCOC2)cc1 (stereo not drawn) | 2 µM (≈ 0.739 µg/mL) | > 100 µM | > 50 | – | – | – | – | – | – | –
7 | COC1CCN(Cc2nc(-c3ccc(C(C)C)cc3)n(-c3ccc(F)cc3)c2C)CC1 | 40 µM (≈ 16.9 µg/mL) | – | – | – | – | – | – | – | – | –
8 | NNC(=O)c1ccncc1 [ISONIAZID] | 1.8 µM (≈ 0.247 µg/mL) | – | – | – | – | – | – | – | – | –
9 | FC(F)(F)c1ccc(-c2cc(CN3CCOCC3)nn2C2CCCCC2)cc1 | 2.5 µM (≈ 0.984 µg/mL) | 50 µM | 20 | – | – | – | – | – | – | –
10 | Cc1cc(CN2CCOCC2)nn1C1CCCCC1 | 2.5 µM (≈ 0.658 µg/mL) | 50 µM | 20 | – | – | – | – | – | – | –
11 | CC(C)c1ccc(-c2cc(CN3CCN(c4ccccn4)CC3)nn2-c2ccc(F)cc2)cc1 | 0.5 µM (≈ 0.228 µg/mL) | 64 µM | 128 | 8.76 | 98.45% | 6 µM (≈ 2.73 µg/mL) | < 3 ×10⁻⁶ cm/s | 25.1 µM | – | –
12 | CC(C)c1ccc(-c2cc(CN3CC[Si](C)(C)CC3)nn2-c2ccc(F)cc2)cc1 | 0.00925 µM (≈ 0.0039 µg/mL) | 12.6 µM | 1360 | 8.82 | 97.49% | 41 µM (≈ 17.3 µg/mL) | – | 2 µM | – | –
13 | FC(F)(F)c1ccc(-c2cc(CN3CCCCC3)nn2C2CCCCC2)cc1 | 2.5 µM (≈ 0.979 µg/mL) | 50 µM | 20 | – | – | – | – | – | – | –
14 | CC(C)n1nc(CN2CCOCC2)cc1-c1ccc(C(F)(F)F)cc1 | 23 µM (≈ 8.13 µg/mL) | > 100 µM | > 4 | – | – | – | – | – | – | –
15 | Cc1c(CN2CCOCC2)cc(-c2ccc(C(C)C)cc2)n1-c1ccc(F)cc1 | 0.12 µM (≈ 0.0471 µg/mL) | – | 333 | 8.1 | 98.37% | < 1 µM | – | – | 5 µg/mL (≈ 12.7 µM) | –
16 | CC(C)c1ccc(-c2cc(CN3CC[Si](C)(C)CC3)nn2C2CCCCC2)cc1 | 0.04 µM (≈ 0.0164 µg/mL) | 12.6 µM | 315 | – | 97.35% | 46 µM (≈ 18.8 µg/mL) | – | 8 µM | – | –
17 | CC(C)c1ccc(-c2cc(CN3CCN(C(=O)OC(C)(C)C)CC3)nn2-c2ccc(F)cc2)cc1 | 2 µM (≈ 0.957 µg/mL) | 80 µM | 40 | – | – | – | – | – | – | –
18 | CC(C)c1ccc(-c2cc(CN3CCOCC3)nn2C(C)C)cc1 | 1.75 µM (≈ 0.573 µg/mL) | 79.4 µM | 45 | – | – | – | – | – | – | –
19 | CC(C)c1ccc(-c2cc(CN3CCN(C(=O)OC(C)(C)C)CC3)nn2C2CCCCC2)cc1 | 1 µM (≈ 0.467 µg/mL) | 40 µM | 40 | – | – | – | – | – | – | –
20 | CC(C)c1ccc(-c2cc(CN3CCN(C)CC3)nn2C2CCCCC2)cc1 | 21 µM (≈ 7.99 µg/mL) | 10 µM | 0.5 | – | – | – | – | – | – | –
21 | CC(C)c1ccc(-c2cc(CN3CCOCC3)nn2-c2ccc(F)cc2)cc1 | 5 µM (≈ 1.9 µg/mL) | 50.1 µM | 10 | – | – | – | – | – | – | –
22 | CC(C)c1ccc(-c2cc(CN3CCN(C)CC3)nn2-c2ccc(F)cc2)cc1 | 20 µM (≈ 7.85 µg/mL) | 12.6 µM | 0.6 | – | – | – | – | – | – | –
23 | CC(C)c1ccc(-c2cc(CN3CCCC(O)C3)nn2-c2ccc(F)cc2)cc1 (stereo not drawn) | 20 µM (≈ 7.87 µg/mL) | 25.1 µM | 1.25 | – | – | – | – | – | – | –
24 | Fc1ccc(-n2nc(CN3CCCCC3)cc2-c2ccc(C(F)(F)F)cc2)cc1 | 2.5 µM (≈ 1.01 µg/mL) | 40 µM | 16 | – | – | – | – | – | – | –
25 | COC1CCN(Cc2cc(-c3ccc(C(C)C)cc3)n(-c3ccc(F)cc3)n2)CC1 | 0.3 µM (≈ 0.122 µg/mL) | 31.6 µM | 105 | 7.31 | 96.42% | 152 µM (≈ 61.9 µg/mL) | 44 ×10⁻⁶ cm/s | 6.31 µM | – | 1.5 log10CFU
26 | COC1CCCN(Cc2cc(-c3ccc(C(C)C)cc3)n(C3CCCCC3)n2)C1 (stereo not drawn) | 2.5 µM (≈ 0.989 µg/mL) | 20 µM | 8 | – | – | – | – | – | – | –
